Test results reported in US20180186742A1, “PICOLINAMIDES AS FUNGICIDES” (Dow AgroSciences LLC, priority 2017, published 2018).
Where two headings read alike, the source gives them in different places.

How the values were obtained:
[1] = tested on: Zymoseptoria tritici; assay: Leaf blotch of wheat (SEPTTR), disease control on wheat seedlings; assay type: in vivo; conditions: for pest or weed control at 121.5 g/ha: low volume application at 121.5 g/H; for pest or weed control at 100 ppm: high volume application at 100 ppm
Method in brief: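 Yuma wheat seedlings with the first leaf fully emerged were sprayed to run-off with compound in acetone plus nine volumes of water containing 110 ppm Triton X-100; track-spray tests used EC formulations with 0.1% Trycol 5941. Z. tritici inoculation came before or after treatment, followed by 100% RH dew periods and a 20 °C greenhouse. Percent control was calculated from severity versus untreated plants.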

[2] = tested on: Puccinia triticina; assay: Wheat brown rust (PUCCRT), disease control on wheat seedlings; assay type: in vivo; conditions: for pest or weed control at 121.5 g/ha: low volume application at 121.5 g/H; for pest or weed control at 100 ppm: high volume application at 100 ppm
Method in brief: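 Compounds in acetone, diluted with nine volumes of water containing 110 ppm Triton X-100, sprayed to run-off on first-leaf Yuma wheat seedlings; track-spray tests used EC formulations with 0.1% Trycol 5941. Puccinia triticina spores applied before or after treatment. Overnight dark dew room at 22° C, 100% humidity, then greenhouse at 24° C.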

[3] = 24 h, 1 Day Protectant, read-out: SEPTTR disease control, 1DP, HV activity
[4] = 72 h, 3 Day Curative, read-out: SEPTTR disease control, 3DC, HV activity
[5] = 24 h, 1 Day Protectant, read-out: PUCCRT disease control, 1DP, HV activity
[6] = 72 h, 3 Day Curative, read-out: PUCCRT disease control, 3DC, HV activity

Compound | pest or weed control at 121.5 g/ha ([1]; 24 h, 1 Day Protectant, read-out: SEPTTR disease control, 1DP, LV activity) | pest or weed control at 121.5 g/ha ([1]; 72 h, 3 Day Curative, read-out: SEPTTR disease control, 3DC, LV activity) | pest or weed control at 121.5 g/ha ([2]; 24 h, 1 Day Protectant, read-out: PUCCRT disease control, 1DP, LV activity) | pest or weed control at 121.5 g/ha ([2]; 72 h, 3 Day Curative, read-out: PUCCRT disease control, 3DC, LV activity) | pest or weed control at 100 ppm [1, 3] | pest or weed control at 100 ppm [1, 4] | pest or weed control at 100 ppm [2, 5] | pest or weed control at 100 ppm [2, 6]
COc1ccc([C@H](C(C)C)[C@H](C)OC(=O)[C@H](C)NC(=O)c2nccc(OC)c2OCOC(C)=O)c(OC)c1 [Compound 264] | < 80% | < 80% | > 80% | > 80% |  |  |  | 
COc1ccnc(C(=O)NCC(=O)O[C@@H](C)[C@H](c2ccc(F)cc2C)C(C)C)c1O [Compound 317] |  |  |  |  | < 80% | < 80% | > 80% | > 80%
COc1ccnc(C(=O)N[C@H](C(=O)O[C@@H](C)[C@H](c2ccc(F)cc2C)C(C)C)C(C)C)c1O [Compound 318] |  |  |  |  | < 80% | < 80% | > 80% | > 80%
CC[C@H](C)[C@H](NC(=O)c1nccc(OC)c1O)C(=O)O[C@@H](C)[C@H](c1ccc(F)cc1C)C(C)C [Compound 319] |  |  |  |  | < 80% | < 80% | < 80% | < 80%
COc1ccnc(C(=O)N[C@@H](CC(C)C)C(=O)O[C@@H](C)[C@H](c2ccc(F)cc2C)C(C)C)c1O [Compound 320] |  |  |  |  | < 80% | < 80% | < 80% | < 80%
COc1ccnc(C(=O)N[C@@H](C)C(=O)O[C@@H](C)[C@H](c2cc(C)ccc2C)C(C)C)c1O [Compound 321] |  |  |  |  | < 80% | < 80% | > 80% | > 80%
COc1ccnc(C(=O)N[C@@H](C)C(=O)O[C@@H](C)[C@H](c2cccc(F)c2C)C(C)C)c1O [Compound 322] |  |  |  |  | < 80% | < 80% | > 80% | > 80%
COc1ccnc(C(=O)N[C@@H](C)C(=O)O[C@@H](C)[C@H](c2ccccc2F)C(C)C)c1O [Compound 323] |  |  |  |  | < 80% | > 80% | > 80% | > 80%
COc1ccnc(C(=O)N[C@@H](C)C(=O)O[C@@H](C)[C@H](c2cc(F)ccc2C)C(C)C)c1O [Compound 324] |  |  |  |  | < 80% | < 80% | > 80% | > 80%
COc1ccnc(C(=O)N[C@@H](C)C(=O)O[C@@H](C)[C@H](c2ccc(C)cc2C)C(C)C)c1O [Compound 325] |  |  |  |  | > 80% | < 80% | > 80% | > 80%
COc1ccnc(C(=O)N[C@@H](C)C(=O)O[C@@H](C)[C@H](c2cccc(C)c2C)C(C)C)c1O [Compound 326] |  |  |  |  | < 80% | > 80% | > 80% | > 80%
COc1ccnc(C(=O)N[C@@H](C)C(=O)O[C@@H](C)[C@H](c2ccccc2C)C(C)C)c1O [Compound 327] |  |  |  |  | < 80% | > 80% | > 80% | > 80%
COc1ccnc(C(=O)N[C@@H](C)C(=O)O[C@@H](C)[C@H](c2ccc(F)cc2F)C(C)C)c1O [Compound 328] |  |  |  |  | > 80% | > 80% | > 80% | > 80%
COc1ccnc(C(=O)N[C@@H](C)C(=O)O[C@@H](C)[C@H](c2ccc(C)cc2F)C(C)C)c1O [Compound 329] |  |  |  |  | < 80% | < 80% | > 80% | > 80%
COc1ccnc(C(=O)N[C@@H](C)C(=O)O[C@@H](C)[C@H](c2ccc(Cl)cc2Cl)C(C)C)c1O [Compound 330] |  |  |  |  | < 80% | < 80% | > 80% | > 80%
